Experimental data reported in paper PMC12730222, “The Adaptable Binding Cleft of RmuAP1, a Pepsin-like Peptidase from Rhodotorula mucilaginosa, Enables the Enzyme to Degrade Immunogenic Peptides Derived from Gluten” (Biomolecules, 2025).
Non-standard residues stand in square brackets, D forms with d. Residues, ends and D or L forms follow the SMILES beside them. *: point of attachment. Sta = CC(C)C[C@H](N)[C@@H](O)CC(=O)O; Isovaleryl = CC(C)CC(=O)*

Target: T1, RmuAP1 (Rhodotorula mucilaginosa, UniProt A0A9P6W3R0)
T1 construct: gene PEP1_2; mature catalytic domain (printed as 300 residues, though residue Ile304 is named), pre- and propeptide removed, C-terminal His6; secreted by Yarrowia lipolytica Po1g
T1 sequence (A0A9P6W3R0 96-425): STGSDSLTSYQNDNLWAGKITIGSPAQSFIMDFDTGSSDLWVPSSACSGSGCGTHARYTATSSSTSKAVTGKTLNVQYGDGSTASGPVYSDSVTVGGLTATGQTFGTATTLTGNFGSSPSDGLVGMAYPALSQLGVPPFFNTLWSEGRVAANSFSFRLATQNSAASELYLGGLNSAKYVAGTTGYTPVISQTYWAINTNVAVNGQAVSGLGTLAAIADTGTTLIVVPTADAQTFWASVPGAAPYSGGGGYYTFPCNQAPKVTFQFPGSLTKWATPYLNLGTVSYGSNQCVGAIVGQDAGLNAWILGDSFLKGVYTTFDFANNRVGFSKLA
Assay: X-ray crystal structure of the complex, […] Å
Assay type: binding
Conditions: crystallised at pH 6.5, 2 M NaCl, 20 °C; active-site cleft, subsites S4 to S2'

Structure (SMILES): CC(C)CC(=O)N[C@H](C(=O)N[C@H](C(=O)N[C@@H](CC(C)C)[C@@H](O)CC(=O)N[C@@H](C)C(=O)N[C@@H](CC(C)C)[C@@H](O)CC(=O)O)C(C)C)C(C)C [pepstatin A] (Isovaleryl-VV[Sta]A[Sta]-OH)
- X-ray crystal structure of the complex, 1.78 Å: The crystal structure of the RmuAP1 complexed with pepstatin A was determined
